Here are results for five compounds from patent US10988508B2, “Synthetic N-acetyl-muramic acid derivatives and uses thereof” (University of Delaware, priority 2015, dated 2021).

For data set [1], the target named is T1, Nod2 (Homo sapiens, UniProt Q9HC29). Kind of data set: Nod2-dependent NF-κB luciferase reporter assay in transfected HEK293T cells. The note with it: 20 μM; for NF-KB Fold Activation ± SD: 12 h, HEK293T, (+) Nod2 plasmid normalized to (−) Nod2 plasmid.
Data set [2] has as its target T1, Nod2. Kind of data set: Nod2 half-life by cycloheximide chase and western blot in HEK 293T-Nod2myc/Tet-op cells. Type of data set: cell-based. More on the design: expressed in transfected cells; host or cells: HEK293T. The note with it: for stabilization of Nod2 (in words): compared to untreated control. The procedure: HEK 293T-Nod2myc/Tet-op cells were incubated with MDP derivatives (compound D2 is shown) or water (Ctrl) and lysates were collected after cycloheximide treatment during the indicated time intervals. Equal amount of lysates were subjected to western blot and probed using rabbit anti-myc antibody. β-actin was used as a loading control.
Nod2 is a transiently stable protein. It is well-known that ligand binding can affect the stability of a receptor. We considered that the interaction of peptidoglycan derivatives with Nod2 could alter the stability of the protein. In order to determine if ligand interaction changes the half-life of Nod2, we analyzed the naturally occurring MDPs (D2, D9, D1), and a subset of the peptidoglycan derivatives with increased activity (D24, D25) or structural similarity (D53, D16) to D2 or D9. We made use of a tetracycline-induced Nod2 expressing cell line, an excellent match for endogenous Nod2 cell lines, and cycloheximide inhibition of protein synthesis to determine the half-life of Nod2 in the presence of the MDP derivatives. Half-life was determined by first order decay according to literature precedent. […] When Nod2 is not treated with a peptidoglycan derivative, the half-life is 7.1±1.4 hours. […] As compound D1 is the only compound tested that contains an amine, which will be positively charged at cellular pH, we were concerned that cell permeability may be a factor. We analyzed the ability of 6-amino-MDP (18 in Table 4), a MDP derivative that replaces the 6-primary-hydroxy group with an amine.

The target in data set [3] is T1, Nod2. The experiment in a line: in vitro binding assay of Nod2. Further details: expressed in transfected cells; host or cells: HEK293T. The text has this:
This could be from either the endogenous Nod2 and/or other targets of the bacterial cell wall ligands.

Another data set concerns the target T2, mouse Nod2 (Mus musculus, UniProt Q8K3Z0).
T2 sequence (Q8K3Z0 1-1020): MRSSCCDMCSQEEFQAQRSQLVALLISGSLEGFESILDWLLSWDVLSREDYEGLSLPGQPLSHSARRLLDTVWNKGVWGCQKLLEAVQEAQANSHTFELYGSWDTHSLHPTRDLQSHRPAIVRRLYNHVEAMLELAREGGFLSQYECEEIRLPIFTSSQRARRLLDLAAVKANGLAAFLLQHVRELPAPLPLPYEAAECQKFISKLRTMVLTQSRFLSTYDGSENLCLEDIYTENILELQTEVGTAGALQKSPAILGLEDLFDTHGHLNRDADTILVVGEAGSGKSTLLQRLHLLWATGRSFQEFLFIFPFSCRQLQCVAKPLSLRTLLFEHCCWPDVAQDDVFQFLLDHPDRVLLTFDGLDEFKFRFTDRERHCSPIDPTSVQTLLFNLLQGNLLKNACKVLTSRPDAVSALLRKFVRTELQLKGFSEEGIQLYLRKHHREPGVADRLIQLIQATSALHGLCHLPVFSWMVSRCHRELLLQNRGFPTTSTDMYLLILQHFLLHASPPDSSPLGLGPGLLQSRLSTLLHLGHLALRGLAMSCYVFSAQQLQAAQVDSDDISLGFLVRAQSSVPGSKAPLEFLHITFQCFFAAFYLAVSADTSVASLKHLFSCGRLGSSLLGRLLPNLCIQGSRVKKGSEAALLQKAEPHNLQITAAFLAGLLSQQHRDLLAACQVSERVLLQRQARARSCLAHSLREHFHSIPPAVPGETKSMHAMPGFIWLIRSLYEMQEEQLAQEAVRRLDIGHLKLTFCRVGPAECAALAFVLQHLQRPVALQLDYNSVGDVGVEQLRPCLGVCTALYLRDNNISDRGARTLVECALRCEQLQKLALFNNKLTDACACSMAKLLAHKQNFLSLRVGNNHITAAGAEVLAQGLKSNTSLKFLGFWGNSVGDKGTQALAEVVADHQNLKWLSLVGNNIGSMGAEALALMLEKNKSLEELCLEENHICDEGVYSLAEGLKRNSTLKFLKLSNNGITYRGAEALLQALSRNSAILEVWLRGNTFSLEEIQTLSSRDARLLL
The note with it: 200 μM, protein synthesis not inhibited; cited from earlier work.

Data set [4] deals with E. coli cells with AmgK, MurU and ΔMurQ. Kind of data set: labeling efficiency by flow cytometry (FACS) after click with Cy-5. Type of data set: cell-based. The note with it: after CuAAC with Cy-5. On the technique in general: Flow cytometry measures light scatter and fluorescence of single cells or particles in a stream.
For the next data set, the system named is E. coli ΔmurQ-KU cells. Kind of data set: in vivo peptidoglycan remodeling and CuAAC fluorophore labeling, visualized by SIM. Format: cell-based. The note with it: 0.2% (w/v) sugar, fosfomycin 200 μg/mL, IPTG 1 mM, CuAAC with rhodamine or Cy-5.
Data set [5] concerns the target T1, Nod2. More on the design: expressed in transfected cells; host or cells: HEK293T. As to conditions: cited from earlier work.

Entries after “also recorded” stand apart in the source; their conditions may differ. Where two headings read alike, the source gives them in different places.

T1 sequence (Q9HC29 whole entry): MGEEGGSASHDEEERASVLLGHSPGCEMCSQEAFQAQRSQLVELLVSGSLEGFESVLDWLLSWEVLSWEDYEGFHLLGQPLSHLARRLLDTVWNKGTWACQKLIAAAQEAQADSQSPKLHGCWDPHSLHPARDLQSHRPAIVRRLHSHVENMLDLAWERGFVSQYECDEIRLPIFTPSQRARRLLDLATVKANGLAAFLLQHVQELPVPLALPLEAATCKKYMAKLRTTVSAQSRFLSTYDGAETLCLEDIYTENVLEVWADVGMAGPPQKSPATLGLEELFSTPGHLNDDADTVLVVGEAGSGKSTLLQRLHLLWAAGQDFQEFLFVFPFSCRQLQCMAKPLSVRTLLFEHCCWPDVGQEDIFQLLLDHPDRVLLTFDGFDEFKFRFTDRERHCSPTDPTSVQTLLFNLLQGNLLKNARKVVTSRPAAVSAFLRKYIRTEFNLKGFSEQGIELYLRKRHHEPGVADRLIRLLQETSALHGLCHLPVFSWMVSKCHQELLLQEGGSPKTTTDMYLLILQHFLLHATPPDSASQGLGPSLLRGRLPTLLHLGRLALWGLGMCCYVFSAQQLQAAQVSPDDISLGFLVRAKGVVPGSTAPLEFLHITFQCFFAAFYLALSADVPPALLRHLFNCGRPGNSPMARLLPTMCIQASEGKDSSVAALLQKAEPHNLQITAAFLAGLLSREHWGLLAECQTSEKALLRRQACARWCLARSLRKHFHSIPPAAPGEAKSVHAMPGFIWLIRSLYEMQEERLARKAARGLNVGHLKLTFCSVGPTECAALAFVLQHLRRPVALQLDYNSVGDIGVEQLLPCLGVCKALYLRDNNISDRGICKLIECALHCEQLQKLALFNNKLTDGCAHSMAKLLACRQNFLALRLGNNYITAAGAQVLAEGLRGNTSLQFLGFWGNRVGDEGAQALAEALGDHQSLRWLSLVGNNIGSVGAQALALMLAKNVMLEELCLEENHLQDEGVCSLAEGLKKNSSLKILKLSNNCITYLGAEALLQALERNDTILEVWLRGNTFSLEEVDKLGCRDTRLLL

The term Kd denotes the free concentration of one partner at which half of the binding sites on the other are occupied at equilibrium, for simple one-to-one binding. Low readings indicate tighter binding, high ones weaker binding. For the compound `CC(=O)N[C@H]1C(O)O[C@H](CO)[C@@H](O)[C@@H]1O[C@H](C)C(=O)N[C@@H](C)C(=O)N[C@H](CCC(=O)O)C(N)=O` (some centres unmarked) [D2, N-acetyl-MDP], the “NF-KB Fold Activation ± SD” value on Nod2 [1] was found to be 1.8 ± 0.3 Fold. The “stabilization of Nod2 (in words)” value on Nod2 [2] is reported as “capable of stabilizing Nod2”. Besides, at Nod2 [3], the affinity, expressed as Kd, was 51 nM. Also, at mouse Nod2, the “effect on Nod2 level” value was “led to the degradation of Nod2”.

Take `C[C@@H](NC(=O)[C@@H](C)OC1C(NC(=O)CO)[C@@H](O)OC(CO)[C@H]1O)C(=O)NC(CCC(=O)O)C(N)=O` (some centres unmarked) [D9, N-glycolyl-MDP]: the “NF-KB Fold Activation ± SD” value at Nod2 [1] stood at 3.1 ± 0.3 Fold. Besides, the “stabilization of Nod2 (in words)” value on Nod2 [2] was “capable of stabilizing Nod2”.

For `C[C@H](NC(=O)[C@@H](C)O[C@@H]1[C@@H](N)[C@H](O)O[C@H](CO)[C@H]1O)C(=O)N[C@H](CCC(=O)O)C(N)=O` [D1, (R)-5-amino-4-((S)-2-((R)-2-(((2R,3R,4R,5S,6R)-3-amino-2,5-dihydroxy-6-(hydroxymethyl)tetrahydro-2H-pyran-4-yl)oxy)propanamido)propanamido)-5-oxopentanoic acid], at Nod2 [1], the “NF-κB activation (in words)” value is “did not activate NF-κB; also recorded: does not elicit an immune response via the Nod2-dependent pathway” and the “NF-KB Fold Activation ± SD” value was “No activation”. Further, the “stabilization of Nod2 (in words)” value at Nod2 [2] is given as “no stabilization of Nod2; also recorded: did not stabilize; also recorded: no stabilizing effect”.

For the compound `CC(=O)N[C@H]1C(O)O[C@H](CO)[C@@H](O)[C@@H]1O[C@H](C)C(=O)O` (some centres unmarked) [A2, N-acetyl-muramic acid], in data set [4], the “fluorescent signal in the gated Cy-5 channel” value is given as “slight fluorescence intensity”. In addition, in the data set with E. coli ΔmurQ-KU cells, the “fluorescent labeling of cells under SIM” value is recorded as “couldn't detect any fluorescence”.

`CC(=O)NC1C(O)OC(CN)C(O)[C@@H]1O[C@H](C)C(=O)N[C@@H](C)C(=O)N[C@H](CCC(=O)O)C(N)=O` (some centres unmarked) [6-amino-MDP]: the “increase of the half-life of Nod2” value at Nod2 [2] (versus untreated) is on record as roughly 3 fold. Moreover, on Nod2 [5], the “NF-κB activation in a Nod2-dependent manner (known)” value is reported as “activate NF-κB in a Nod2-dependent manner”. In addition, the “NF-KB Fold Activation ± SD” value on Nod2 [5] (value marked with reference 19) is 2.8 ± 0.1^19 Fold.
